According to ChEMBL document CHEMBL1125544, “Novel thiosemicarbazones derived from formyl- and acyldiazines: synthesis, effects on cell proliferation, and synergism with antiviral agents” (1992):
In brackets after ≈: the same amount, converted by molar mass.

Assays:
Settings in all cases: Homo sapiens
[1] = system: HuT78; assay: Inhibition of proliferation of HUT78 cells.
[2] = system: MT4; assay: Inhibition of proliferation of MT-4 cells.
[3] = system: HuT78; assay: Compound was evaluated for inhibition of proliferation of HUT78 cells (in vitro)
[4] = system: MT4; assay: Compound was evaluated for inhibition of proliferation of MT-4 cells (in vitro)
[5] = system: MT4; assay: Compound was evaluated for inhibition of proliferation of MT-4 cells(in vitro)

Structure (SMILES)	IC50 [1]	IC50 [2]	IC50 [3]	IC50 [4]	IC50 [5]
C/N=C(\S)N/N=C(\C)c1cccnn1	1.86 µg/mL (≈ 8.89 µM)	1.62 µg/mL (≈ 7.74 µM)	–	–	–
CC(N/N=C(\S)N1CCCCCC1)c1cccnn1 (stereo not drawn)	0.04 µg/mL (≈ 0.143 µM)	0.028 µg/mL (≈ 0.1 µM)	–	–	–
C/C(=N\N=C(/S)N1CCCCCC1)c1cnccn1	0.0083 µg/mL (≈ 0.0299 µM)	0.0059 µg/mL (≈ 0.0213 µM)	–	–	–
C/C(=N\N=C(/S)N1CCCCC1)c1ccncn1	0.0037 µg/mL (≈ 0.014 µM)	0.0013 µg/mL (≈ 0.00494 µM)	–	–	–
C/N=C(\S)N/N=C(\C)c1ccncn1	0.022 µg/mL (≈ 0.105 µM)	0.02 µg/mL (≈ 0.0956 µM)	–	–	–
CC/C(=N\N=C(/S)N1CCCC1)c1cccnn1	0.052 µg/mL (≈ 0.197 µM)	0.016 µg/mL (≈ 0.0608 µM)	–	–	–
CC(N/N=C(\S)N1CCCCC1)c1cccnn1 (stereo not drawn)	0.074 µg/mL (≈ 0.279 µM)	0.033 µg/mL (≈ 0.124 µM)	–	–	–
C/C(=N\N=C(/S)N1CCCCCC1)c1ccc(C)nn1	0.054 µg/mL (≈ 0.185 µM)	0.028 µg/mL (≈ 0.0961 µM)	–	–	–
CCC/C(=N\N=C(/S)N1CCCCC1)c1cccnn1	0.0023 µg/mL (≈ 0.00789 µM)	0.0012 µg/mL (≈ 0.00412 µM)	–	–	–
C/C(=N\N=C(/S)NCc1ccccn1)c1cccnn1	2.01 µg/mL (≈ 7.02 µM)	0.87 µg/mL (≈ 3.04 µM)	–	–	–
CN(C)/C(S)=N/N=C/c1cccnn1	0.11 µg/mL (≈ 0.526 µM)	0.11 µg/mL (≈ 0.526 µM)	–	–	–
C/C(=N\N=C(\N)S)c1ccncn1	0.82 µg/mL (≈ 4.2 µM)	0.14 µg/mL (≈ 0.717 µM)	–	–	–
C/C(=N\N=C(/S)N1CC2CCC(CC2)C1)c1cnccn1	0.0069 µg/mL (≈ 0.0227 µM)	0.0054 µg/mL (≈ 0.0178 µM)	–	–	–
C=CCN/C(S)=N/N=C(\C)c1ccc(C)nn1	2.81 µg/mL (≈ 11.3 µM)	1.47 µg/mL (≈ 5.9 µM)	–	–	–
C=CCN/C(S)=N/N=C(\C)c1cnccn1	0.036 µg/mL (≈ 0.153 µM)	0.014 µg/mL (≈ 0.0595 µM)	–	–	–
C/C(=N\N=C(\N)S)c1cccnn1	0.99 µg/mL (≈ 5.07 µM)	1.13 µg/mL (≈ 5.79 µM)	–	–	–
C=CCNC(=S)N/N=C/c1cccnn1	6.22 µg/mL (≈ 28.1 µM)	3.1 µg/mL (≈ 14 µM)	–	–	–
C/C(=N\N=C(/S)N1CCCC1)c1ccncn1	0.00031 µg/mL (≈ 0.00124 µM)	0.00026 µg/mL (≈ 0.00104 µM)	–	–	–
C/C(=N\N=C(/S)NCc1ccccn1)c1ccncn1	0.24 µg/mL (≈ 0.838 µM)	0.018 µg/mL (≈ 0.0629 µM)	–	–	–
C/C(=N\NC(=S)N(C)C)c1cnccn1	0.00062 µg/mL (≈ 0.00278 µM)	0.00045 µg/mL (≈ 0.00202 µM)	–	–	–
C/C(=N\N=C(\N)S)c1ccc(C)nn1	1.58 µg/mL (≈ 7.55 µM)	1.49 µg/mL (≈ 7.12 µM)	–	–	–
C/C(=N\NC(=S)N1CCCCC1)c1cnccn1	0.00052 µg/mL (≈ 0.00197 µM)	0.00055 µg/mL (≈ 0.00209 µM)	–	–	–
C/C(=N\N=C(\N)S)c1cnccn1	1.39 µg/mL (≈ 7.12 µM)	0.95 µg/mL (≈ 4.87 µM)	–	–	–
CC(N/N=C(\S)N1CC2CCC(CC2)C1)c1cccnn1 (stereo not drawn)	0.038 µg/mL (≈ 0.124 µM)	0.034 µg/mL (≈ 0.111 µM)	–	–	–
C=CCN/C(S)=N/N=C(\C)c1cccnn1	2.65 µg/mL (≈ 11.3 µM)	1.28 µg/mL (≈ 5.44 µM)	–	–	–

Structure (SMILES)	IC50 [1]	IC50 [2]	IC50 [3]	IC50 [4]	IC50 [5]
C/C(=N\N=C(/S)N1CCCC1)c1ccc(C)nn1	0.073 µg/mL (≈ 0.277 µM)	0.036 µg/mL (≈ 0.137 µM)	–	–	–
C/C(=N\NC(=S)N(C)C)c1ccccn1	–	–	0.00055 µg/mL (≈ 0.00247 µM)	0.00011 µg/mL (≈ 0.000495 µM)	–
C/C(=N\N=C(/S)N1CCCCC1)c1ccc(C)nn1	0.055 µg/mL (≈ 0.198 µM)	0.019 µg/mL (≈ 0.0685 µM)	–	–	–
CC/C(=N\N=C(/S)N1CCCCC1)c1cccnn1	0.071 µg/mL (≈ 0.256 µM)	0.03 µg/mL (≈ 0.108 µM)	–	–	–
CCC/C(=N\N=C(/S)N1CCCCCC1)c1cccnn1	0.098 µg/mL (≈ 0.321 µM)	0.088 µg/mL (≈ 0.288 µM)	–	–	–
C/N=C(\S)N/N=C(\C)c1cnccn1	0.88 µg/mL (≈ 4.2 µM)	0.46 µg/mL (≈ 2.2 µM)	–	–	–
CC(N/N=C(\S)N1CCCC1)c1cccnn1 (stereo not drawn)	0.068 µg/mL (≈ 0.271 µM)	0.016 µg/mL (≈ 0.0637 µM)	–	–	–
C/C(=N\N=C(/S)N1CC2CCC(CC2)C1)c1ccncn1	0.036 µg/mL (≈ 0.119 µM)	0.047 µg/mL (≈ 0.155 µM)	–	–	–
C/C(=N\N=C(/S)N(C)C)c1ccncn1	0.00065 µg/mL (≈ 0.00291 µM)	0.00049 µg/mL (≈ 0.00219 µM)	–	–	–
N/C(S)=N/N=C/c1cccnn1	4.21 µg/mL (≈ 23.2 µM)	2.18 µg/mL (≈ 12 µM)	–	–	–
C/N=C(\S)N/N=C/c1cccnn1	4.52 µg/mL (≈ 23.1 µM)	2.42 µg/mL (≈ 12.4 µM)	–	–	–
C/C(=N\N=C(/S)NCc1ccccn1)c1ccc(C)nn1	2.82 µg/mL (≈ 9.39 µM)	1.64 µg/mL (≈ 5.46 µM)	–	–	–
C/C(=N\N=C(/S)N1CCCCCC1)c1ccncn1	0.0022 µg/mL (≈ 0.00793 µM)	0.016 µg/mL (≈ 0.0577 µM)	–	–	–
C=CCN/C(S)=N/N=C(\C)c1ccncn1	0.031 µg/mL (≈ 0.132 µM)	0.081 µg/mL (≈ 0.344 µM)	–	–	–
C/N=C(\S)N/N=C(\C)c1ccc(C)nn1	2.15 µg/mL (≈ 9.63 µM)	1.52 µg/mL (≈ 6.81 µM)	–	–	–
CCC/C(=N\N=C(/S)N1CC2CCC(CC2)C1)c1cccnn1	0.062 µg/mL (≈ 0.187 µM)	0.084 µg/mL (≈ 0.253 µM)	–	–	–
C/C(=N\N=C(/S)N(C)C)c1ccc(C)nn1	0.088 µg/mL (≈ 0.371 µM)	0.12 µg/mL (≈ 0.506 µM)	–	–	–
CC/C(=N\N=C(/S)N1CCCCCC1)c1cccnn1	0.073 µg/mL (≈ 0.25 µM)	0.039 µg/mL (≈ 0.134 µM)	–	–	–
CCC/C(=N\N=C(/S)N1CCCC1)c1cccnn1	0.068 µg/mL (≈ 0.245 µM)	0.036 µg/mL (≈ 0.13 µM)	–	–	–
C/C(=N\NC(N)=S)c1ccccn1	–	–	0.35 µg/mL (≈ 1.8 µM)	–	0.049 µg/mL (≈ 0.252 µM)
S=C(NCc1ccccn1)N/N=C/c1cccnn1	5.62 µg/mL (≈ 20.6 µM)	3.9 µg/mL (≈ 14.3 µM)	–	–	–
C/C(=N\NC(=S)N1CCCC1)c1cnccn1	0.00049 µg/mL (≈ 0.00197 µM)	0.00019 µg/mL (≈ 0.000762 µM)	–	–	–
C/C(=N\N=C(/S)NCc1ccccn1)c1cnccn1	1.11 µg/mL (≈ 3.88 µM)	0.041 µg/mL (≈ 0.143 µM)	–	–	–
C/C(=N\N=C(/S)N(C)C)c1cccnn1	0.079 µg/mL (≈ 0.354 µM)	0.1 µg/mL (≈ 0.448 µM)	–	–	–
